From US5688938A, “Calcium receptor-active molecules” (priority 1995, dated 1997)

Tests used:
[1] = target: T1, parathyroid cell calcium receptor (Homo sapiens, UniProt P41180); assay: [Ca^2+]i (fura-2) in human parathyroid cells; format: cell-based
T1 construct: Dissociated parathyroid cells were prepared from a parathyroid adenoma obtained by surgery from a patient with primary hyperparathyroidism; endogenous in cells; host or cells: primary dissociated human parathyroid cells (adenoma or hyperplastic tissue from surgery)
T1 sequence (P41180 20-1078): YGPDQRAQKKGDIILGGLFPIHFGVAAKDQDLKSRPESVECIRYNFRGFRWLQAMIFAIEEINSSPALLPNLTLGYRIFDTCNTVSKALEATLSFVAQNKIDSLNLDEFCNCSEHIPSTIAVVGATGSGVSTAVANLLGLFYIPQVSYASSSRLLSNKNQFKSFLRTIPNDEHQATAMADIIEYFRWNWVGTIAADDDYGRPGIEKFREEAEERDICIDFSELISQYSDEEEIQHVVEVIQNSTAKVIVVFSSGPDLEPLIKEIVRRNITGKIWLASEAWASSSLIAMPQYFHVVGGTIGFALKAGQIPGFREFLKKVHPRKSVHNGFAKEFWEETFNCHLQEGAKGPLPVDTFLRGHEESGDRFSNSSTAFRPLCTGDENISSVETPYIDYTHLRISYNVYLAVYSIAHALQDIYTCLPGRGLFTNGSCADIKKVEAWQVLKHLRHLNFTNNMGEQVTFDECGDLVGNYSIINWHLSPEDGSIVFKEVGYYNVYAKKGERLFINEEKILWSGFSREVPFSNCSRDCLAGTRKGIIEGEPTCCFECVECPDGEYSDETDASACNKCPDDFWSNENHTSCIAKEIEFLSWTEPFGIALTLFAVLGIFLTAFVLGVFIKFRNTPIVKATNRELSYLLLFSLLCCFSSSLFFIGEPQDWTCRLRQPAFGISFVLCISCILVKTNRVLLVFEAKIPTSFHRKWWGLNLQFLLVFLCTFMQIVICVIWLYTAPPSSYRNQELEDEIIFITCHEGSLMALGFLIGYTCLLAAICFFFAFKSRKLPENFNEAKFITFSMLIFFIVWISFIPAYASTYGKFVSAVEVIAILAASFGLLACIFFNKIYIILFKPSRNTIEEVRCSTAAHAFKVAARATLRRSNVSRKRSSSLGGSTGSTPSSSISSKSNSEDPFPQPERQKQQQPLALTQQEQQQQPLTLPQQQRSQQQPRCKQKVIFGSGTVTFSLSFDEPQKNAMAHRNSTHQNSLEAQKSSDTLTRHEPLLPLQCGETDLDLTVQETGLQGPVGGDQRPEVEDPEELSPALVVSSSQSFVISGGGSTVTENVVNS
Method: This section describes procedures used to obtain and treat parathyroid cells from calves and humans. […] Human parathyroid glands, were obtained from patients undergoing surgical removal of parathyroid tissue for primary or uremic hyperparathyroidism (uremic HPT), and were treated similarly to bovine tissue.
Dissociated parathyroid cells were prepared from a parathyroid adenoma obtained by surgery from a patient with primary hyperparathyroidism.

[2] = serum ionized Ca^2+ in parathyroidectomized rats; format: in vivo, rat; details: oral
Excerpt: To determine the primary target tissue upon which NPS R-467 acts to cause a hypocalcemic response, the parathyroid glands in rats were surgically removed. Animals receiving a total parathyroidectomy become hypocalcemic and are largely dependent upon dietary calcium to maintain serum Ca^2+ homeostasis.

[3] = serum/plasma Ca^2+, PTH and calcitonin in rats, oral; format: in vivo; details: rat, oral
Excerpt: Rats (male, Sprague-Dawley, 250-300 g) were fed standard rat chow and fasted overnight prior to the experiment. NPS R-467 was suspended in corn oil and administered as a single oral dose through a gavage needle. Three hours later a sample of blood was taken from the tail vein and assessed for ionized Ca^2+ levels.

[4] = single oral doses of NPS R-568 in a healthy post-menopausal person; format: in vivo, human
Excerpt: A range of single oral doses was used to assess safety, tolerance, and changes in primary hyperparathyroidism markers (e.g., plasma concentrations of parathyroid hormone and ionized serum calcium) and of serum calcitonin.
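Throughout, for Serum Calcitonin: serum calcitonin in pg/mL.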

With `NC[C@@H]1O[C@H](O[C@H]2[C@@H](O)[C@H](O[C@@H]3[C@@H](O)[C@H](N)C[C@H](N)[C@H]3O[C@H]3O[C@H](CN)[C@@H](O)[C@H](O)[C@H]3N)O[C@@H]2CO)[C@H](N)[C@@H](O)[C@@H]1O` [Neomycin] the “increase in [Ca^2+]i” value ([1]; 20 μM) was “large increase in [Ca^2+ ]i”, the “increases in [Ca^2+]i” value ([1]; human adenoma cells) was “not only a transient, but additionally a steady-state increase in [Ca^2+ ]i” and the EC50 ([1]; human parathyroid cells) was 20 µM.
In the case of `COc1cccc([C@@H](C)NCCCc2ccccc2Cl)c1` [NPS R-568, (R)-(+)-N-[3-(2-chlorophenyl)propyl]-α-methyl-3-methoxybenzylamine], the “hypocalcemic response in parathyroidectomized rats” value [2] is reported as “fails to elicit a hypocalcemic response”, the “hypocalcemic response after prior complete nephrectomy” value [3] is reported as “only marginally affected” and the “Serum Calcitonin” value ([4]; 20 mg oral, 0 h) is reported as 3.2 pg/mL. For the same compound, the Serum Ionized Calcium ([4]; 20 mg oral, 0 h) was 1.26 mM, the “Serum PTH” value ([4]; 20 mg oral, 0 h) was 31 pg/mL and the “Serum Calcitonin” value ([4]; 20 mg oral, 0.5 h) was 3.8 pg/mL. For the same compound, the Serum Ionized Calcium ([4]; 20 mg oral, 0.5 h) was 1.26 mM, the “Serum PTH” value ([4]; 20 mg oral, 0.5 h) was 23 pg/mL and the “Serum Calcitonin” value ([4]; 20 mg oral, 1 h) was 3.2 pg/mL. For the same compound, the Serum Ionized Calcium ([4]; 20 mg oral, 1 h) was 1.26 mM, the “Serum PTH” value ([4]; 20 mg oral, 1 h) was 18 pg/mL and the “Serum Calcitonin” value ([4]; 20 mg oral, 2 h) was 4.5 pg/mL. For the same compound, the Serum Ionized Calcium ([4]; 20 mg oral, 2 h) was 1.26 mM, the “Serum PTH” value ([4]; 20 mg oral, 2 h) was 24 pg/mL and the “Serum Calcitonin” value ([4]; 20 mg oral, 4 h) was 4.2 pg/mL. The Serum Ionized Calcium ([4]; 20 mg oral, 4 h) was 1.26 mM, the “Serum PTH” value ([4]; 20 mg oral, 4 h) was 34 pg/mL and the “Serum Calcitonin” value ([4]; 20 mg oral, 8 h) was 3.9 pg/mL. For the same compound, the Serum Ionized Calcium ([4]; 20 mg oral, 8 h) was 1.26 mM, the “Serum PTH” value ([4]; 20 mg oral, 8 h) was 34 pg/mL and the “Serum Calcitonin” value ([4]; 20 mg oral, 12 h) was 3.2 pg/mL. For the same compound, the Serum Ionized Calcium ([4]; 20 mg oral, 12 h) was 1.23 mM, the “Serum PTH” value ([4]; 20 mg oral, 12 h) was 48 pg/mL and the “Serum Calcitonin” value ([4]; 20 mg oral, 24 h) was 3.6 pg/mL. The Serum Ionized Calcium ([4]; 20 mg oral, 24 h) was 1.29 mM, the “Serum PTH” value ([4]; 20 mg oral, 24 h) was 32 pg/mL and the “Serum Calcitonin” value ([4]; 240 mg oral, 0 h) was 5.8 pg/mL. The Serum Ionized Calcium ([4]; 240 mg oral, 0 h) was 1.26 mM, the “Serum PTH” value ([4]; 240 mg oral, 0 h) was 29 pg/mL and the “Serum Calcitonin” value ([4]; 240 mg oral, 0.5 h) was 4.8 pg/mL. The Serum Ionized Calcium ([4]; 240 mg oral, 0.5 h) was 1.26 mM, the “Serum PTH” value ([4]; 240 mg oral, 0.5 h) was 18 pg/mL and the “Serum Calcitonin” value ([4]; 240 mg oral, 1 h) was 6.5 pg/mL. The Serum Ionized Calcium ([4]; 240 mg oral, 1 h) was 1.25 mM, the “Serum PTH” value ([4]; 240 mg oral, 1 h) was 6 pg/mL and the “Serum Calcitonin” value ([4]; 240 mg oral, 2 h) was 7.5 pg/mL. For the same compound, the Serum Ionized Calcium ([4]; 240 mg oral, 2 h) was 1.23 mM, the “Serum PTH” value ([4]; 240 mg oral, 2 h) was 6 pg/mL and the “Serum Calcitonin” value ([4]; 240 mg oral, 4 h) was 6.1 pg/mL. For the same compound, the Serum Ionized Calcium ([4]; 240 mg oral, 4 h) was 1.19 mM, the “Serum PTH” value ([4]; 240 mg oral, 4 h) was 10 pg/mL and the “Serum Calcitonin” value ([4]; 240 mg oral, 8 h) was 4.7 pg/mL. The Serum Ionized Calcium ([4]; 240 mg oral, 8 h) was 1.16 mM, the “Serum PTH” value ([4]; 240 mg oral, 8 h) was 27 pg/mL and the “Serum Calcitonin” value ([4]; 240 mg oral, 12 h) was 5.3 pg/mL. For the same compound, the Serum Ionized Calcium ([4]; 240 mg oral, 12 h) was 1.18 mM, the “Serum PTH” value ([4]; 240 mg oral, 12 h) was 35 pg/mL and the “Serum Calcitonin” value ([4]; 240 mg oral, 24 h) was 8.3 pg/mL. The Serum Ionized Calcium ([4]; 240 mg oral, 24 h) was 1.23 mM, the “Serum PTH” value ([4]; 240 mg oral, 24 h) was 34 pg/mL and the “Serum Calcitonin” value ([4]; 400 mg oral, 0 h) was 3.4 pg/mL. The Serum Ionized Calcium ([4]; 400 mg oral, 0 h) was 1.24 mM, the “Serum PTH” value ([4]; 400 mg oral, 0 h) was 33 pg/mL and the “Serum Calcitonin” value ([4]; 400 mg oral, 0.5 h) was 4.0 pg/mL. The Serum Ionized Calcium ([4]; 400 mg oral, 0.5 h) was 1.26 mM, the “Serum PTH” value ([4]; 400 mg oral, 0.5 h) was 13 pg/mL and the “Serum Calcitonin” value ([4]; 400 mg oral, 1 h) was 6.0 pg/mL. The Serum Ionized Calcium ([4]; 400 mg oral, 1 h) was 1.25 mM, the “Serum PTH” value ([4]; 400 mg oral, 1 h) was 9 pg/mL and the “Serum Calcitonin” value ([4]; 400 mg oral, 2 h) was 7.1 pg/mL. The Serum Ionized Calcium ([4]; 400 mg oral, 2 h) was 1.22 mM, the “Serum PTH” value ([4]; 400 mg oral, 2 h) was 8 pg/mL and the “Serum Calcitonin” value ([4]; 400 mg oral, 4 h) was 5.2 pg/mL. For the same compound, the Serum Ionized Calcium ([4]; 400 mg oral, 4 h) was 1.19 mM, the “Serum PTH” value ([4]; 400 mg oral, 4 h) was 11 pg/mL and the “Serum Calcitonin” value ([4]; 400 mg oral, 8 h) was 3.8 pg/mL. For the same compound, the Serum Ionized Calcium ([4]; 400 mg oral, 8 h) was 1.13 mM, the “Serum PTH” value ([4]; 400 mg oral, 8 h) was 20 pg/mL and the “Serum Calcitonin” value ([4]; 400 mg oral, 12 h) was 3.7 pg/mL. The Serum Ionized Calcium ([4]; 400 mg oral, 12 h) was 1.15 mM, the “Serum PTH” value ([4]; 400 mg oral, 12 h) was 31 pg/mL and the “Serum Calcitonin” value ([4]; 400 mg oral, 24 h) was 3.0 pg/mL. For the same compound, the Serum Ionized Calcium ([4]; 400 mg oral, 24 h) was 1.22 mM, the “Serum PTH” value ([4]; 400 mg oral, 24 h) was 31 pg/mL and the “effect on serum ionized calcium (summary)” value ([4]; human, higher oral doses) was “decrease in serum ionized calcium concentration”. For the same compound, the “effect on plasma PTH (summary)” value ([4]; human, oral) was “transient dose-dependent decrease in plasma PTH concentration” and the “effect on serum calcitonin (summary)” value ([4]; human, oral) was “no apparent change in serum calcitonin”.
